Results: patent publication US9429568B2, “Silaanthracene as a red and near infrared sensor and a method to manufacture such a sensor” (Board of Trustees of Southern Illinois University on Behalf …, priority 2010, dated 2016)

Legend:
[1] = Hypochlorous acid (HOCl) sensor: fluorescence and absorbance response to added HOCl; type: physicochemical; settings: 0.5 μM compound; for peak emission intensity wavelength: all HOCl concentrations
Method: A solution of compound 3 from Table 2 herein was formed at a concentration of 0.5 μM and at a pH of 7.4. HOCl was added to the solution at concentrations ranging up to 2 μM and the fluorescence of the resulting solutions was measured after exposure to an excitatory light pulse of 655 nm.
A solution of compound 29 from Table 5 herein was formed at a concentration of 0.5 μM and at a pH of 7.4. HOCl was added to the solution at concentrations ranging up to 5 μM and the fluorescence of the resulting solutions was measured after exposure to an excitatory light pulse of 580 nm.

[2] = Ratiometric sensor for hypochlorous acid and pH: UV-Vis and fluorescence in buffer series; type: physicochemical; settings: excited at 430 nm, all HOCl concentrations, phosphate or citrate/phosphate buffer, 0.5% DMF
Method: A solution of compound 29 from Table 4 herein was dissolved in a series of phosphate buffer or citrate/phosphate buffer solutions using 0.5% DMF for dissolution. The pH level of each sample solution was checked using a digital pH meter (Accumet, AB15) equipped with a glass electrode (Accumet, pH/ATC Calomel) to confirm the pH of each sample solution. After recording the pH of a sample solution, 20 mL of the sample solution was stirred in a 50 mL beaker to saturate the sample solution with oxygen. Small aliquots from a dilute HOCl solution were then added to the sample solution. After the addition of each HOCl aliquot, the sample solution was stirred for approximately 45 seconds and then the UV-Vis and fluorescence of the sample solution was measured using a quartz cuvette with fluorescence excitations at 570 nm and 430 nm. The concentration of the NaOCl solution was determined by using a standardized sodium thiosulfate solution.

Row | SMILES | peak emission intensity wavelength ([1]; pH 7.4, HOCl up to 2 μM, excitation 655 nm) [nm] | first emission intensity peak wavelength [2] [nm] | second more intense emission peak wavelength [2] [nm] | maximum absorbance wavelength λmax ([1]; pH 7.4, HOCl up to 5 μM) [nm] | shoulder peak emission wavelength ([1]; pH 7.4, HOCl up to 5 μM, excited at 430 nm) [nm] | peak emission intensity wavelength ([1]; pH 7.4, HOCl up to 5 μM, excited at 570 nm) [nm]
1 | CN(C)c1ccc2c(c1)[Si](C)(C)c1cc(N(C)C)ccc1C21SCc2ccccc21 [Compound 3] | 663 | – | – | – | – | –
2 | C[Si]1(C)c2cc(O)ccc2C2(c3ccccc3C(=O)N2CCN2CCNCCNCCNCC2)c2ccc(O)cc21 [Compound 29] | – | 570 | 600 | 590 | 570 | 605
